In the experiment the target is T1, human PAR4 (Homo sapiens, UniProt Q96RI0).
T1 construct: expressed in transfected cells; host or cells: HEK293 PAR4 Clone 1.2A (BMS Arctic ID 383940)
T1 sequence (Q96RI0 18-385): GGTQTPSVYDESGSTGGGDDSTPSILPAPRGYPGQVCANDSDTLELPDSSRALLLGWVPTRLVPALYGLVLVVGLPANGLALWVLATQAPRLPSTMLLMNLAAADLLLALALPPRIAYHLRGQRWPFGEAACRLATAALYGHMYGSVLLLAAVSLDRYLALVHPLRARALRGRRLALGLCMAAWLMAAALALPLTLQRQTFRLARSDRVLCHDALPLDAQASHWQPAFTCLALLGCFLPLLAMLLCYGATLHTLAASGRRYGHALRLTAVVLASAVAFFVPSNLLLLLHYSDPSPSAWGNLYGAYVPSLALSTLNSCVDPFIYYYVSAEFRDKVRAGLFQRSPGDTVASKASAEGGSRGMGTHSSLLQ
Nature of the experiment: PAR4 FLIPR assay: antagonism of agonist-peptide-induced calcium mobilization in PAR4-expressing HEK293 cells. The class given is cell-based. The following applies: H-Ala-Phe(4-F)-[…]NH2-induced intracellular calcium mobilization, 11-point curves. A general note: Calcium flux is commonly read through the fluorescence of an indicator in the cells.

pIC50: −log10 of the molar value.

In the case of `COc1cncc(NC(=O)O[C@H](C)[C@H](C)Oc2cc3sc(-c4cc(Cl)cc5cc(OC)cnc45)nc3cc2F)c1` [Example 785, (2R,3S)-3-((2-(6-chloro-3-methoxyquinolin-8-yl)-5-fluorobenzo[d]thiazol-6-yl)oxy)butan-2-yl (5-methoxypyridin-3-yl)carbamate], the pIC50 (usually the negative decadic logarithm of the IC50, by convention in mol/L) was 8.46.
The result for `COc1cnc2c(-c3nc4cc(F)c(O[C@@H](C)[C@@H](C)OC(=O)Nc5cncc(C#N)c5)cc4s3)cc(Cl)cc2c1` [Example 786, (2R,3S)-3-((2-(6-chloro-3-methoxyquinolin-8-yl)-5-fluorobenzo[d]thiazol-6-yl)oxy)butan-2-yl (5-cyanopyridin-3-yl)carbamate] reads 8.66; that for `COc1cnc2c(-c3nc4cc(F)c(O[C@@H](C)[C@@H](C)OC(=O)Nc5cnc(C)c(C)c5)cc4s3)cc(Cl)cc2c1` [Example 787, (2R,3S)-3-((2-(6-chloro-3-methoxyquinolin-8-yl)-5-fluorobenzo[d]thiazol-6-yl)oxy)butan-2-yl (5,6-dimethylpyridin-3-yl)carbamate], 8.54; that for `COc1cnc2c(-c3nc4cc(F)c(O[C@@H](C)[C@@H](C)OC(=O)Nc5cccnc5)cc4s3)cc(Cl)cc2c1` [Example 788, (2R,3S)-3-((2-(6-chloro-3-methoxyquinolin-8-yl)-5-fluorobenzo[d]thiazol-6-yl)oxy)butan-2-yl pyridin-3-ylcarbamate], 8.51.
The result for `COc1cnc2c(-c3nc4cc(F)c(O[C@@H](C)[C@@H](C)OC(=O)Nc5ccc(F)nc5)cc4s3)cc(Cl)cc2c1` [Example 789, (2R,3S)-3-((2-(6-chloro-3-methoxyquinolin-8-yl)-5-fluorobenzo[d]thiazol-6-yl)oxy)butan-2-yl (6-fluoropyridin-3-yl)carbamate] reads 8.62; that for `COc1cnc2c(-c3nc4cc(F)c(O[C@@H](C)[C@@H](C)OC(=O)Nc5ccncc5)cc4s3)cc(Cl)cc2c1` [Example 790, (2R,3S)-3-((2-(6-chloro-3-methoxyquinolin-8-yl)-5-fluorobenzo[d]thiazol-6-yl)oxy)butan-2-yl pyridin-4-ylcarbamate], 8.36.
With `COc1cnc2c(-c3nc4cc(F)c(O[C@@H](C)[C@@H](C)OC(=O)Nc5cnc(C)nc5)nc4s3)cc(C)cc2c1` [Example 791, (2R,3S)-3-((6-fluoro-2-(3-methoxy-6-methylquinolin-8-yl)thiazolo[5,4-b]pyridin-5-yl)oxy)butan-2-yl (2-methylpyrimidin-5-yl)carbamate] the figure was 8.64.
As to `COc1cnc2c(-c3nc4cc(F)c(O[C@@H](C)[C@@H](C)OC(=O)Nc5cnc(CO)nc5)nc4s3)cc(C)cc2c1` [Example 792, (2R,3S)-3-((6-fluoro-2-(3-methoxy-6-methylquinolin-8-yl)thiazolo[5,4-b]pyridin-5-yl)oxy)butan-2-yl (2-(hydroxymethyl)pyrimidin-5-yl)carbamate], the pIC50 was 7.96.
With `COc1cnc2c(-c3nc4cc(F)c(O[C@@H](C)[C@@H](C)OC(=O)Nc5cnc(CO)nc5)nc4s3)cc(Cl)cc2c1` [Example 793, (2R,3S)-3-((2-(6-chloro-3-methoxyquinolin-8-yl)-6-fluorothiazolo[5,4-b]pyridin-5-yl)oxy)butan-2-yl (2-(hydroxymethyl)pyrimidin-5-yl)carbamate] the figure was 7.62; with `COc1cnc2c(-c3nc4cc(F)c(OC[C@@H](C)OC(=O)Nc5cnc(CO)nc5)nc4s3)cc(Cl)cc2c1` [Example 794, (R)-1-((2-(6-chloro-3-methoxyquinolin-8-yl)-6-fluorothiazolo[5,4-b]pyridin-5-yl)oxy)propan-2-yl (2-(hydroxymethyl)pyrimidin-5-yl)carbamate], 8.00.
The result for `COc1cnc2c(-c3nc4c(Cl)c(F)c(O[C@@H](C)[C@@H](C)OC(=O)Nc5cnc(OCCO)nc5)cc4s3)cc(Cl)cc2c1` [Example 795, (2R,3S)-3-((4-chloro-2-(6-chloro-3-methoxyquinolin-8-yl)-5-fluorobenzo[d]thiazol-6-yl)oxy)butan-2-yl (2-(2-hydroxyethoxy)pyrimidin-5-yl)carbamate] reads 9.10; that for `COc1cnc2c(-c3nc4c(Cl)c(F)c(O[C@@H](C)[C@@H](C)OC(=O)Nc5cnc(OC[C@@H](C)O)nc5)cc4s3)cc(Cl)cc2c1` [Example 796, (2R,3S)-3-((4-chloro-2-(6-chloro-3-methoxyquinolin-8-yl)-5-fluorobenzo[d]thiazol-6-yl)oxy)butan-2-yl (2-((R)-2-hydroxypropoxy)pyrimidin-5-yl)carbamate], 8.89.
With `COc1cnc2c(-c3nc4c(Cl)c(F)c(O[C@@H](C)[C@@H](C)OC(=O)Nc5ccc(F)nc5)cc4s3)cc(Cl)cc2c1` [Example 797, (2R,3S)-3-((4-chloro-2-(6-chloro-3-methoxyquinolin-8-yl)-5-fluorobenzo[d]thiazol-6-yl)oxy)butan-2-yl (6-fluoropyridin-3-yl)carbamate] the figure was 8.51.
For `COc1cnc2c(-c3nc4c(Cl)c(F)c(O[C@@H](C)[C@@H](C)OC(=O)Nc5ccncc5)cc4s3)cc(Cl)cc2c1` [Example 798, (2R,3S)-3-((4-chloro-2-(6-chloro-3-methoxyquinolin-8-yl)-5-fluorobenzo[d]thiazol-6-yl)oxy)butan-2-yl pyridin-4-ylcarbamate], the pIC50 is 8.60.
On to `COc1cnc2c(-c3nc4c(Cl)c(F)c(O[C@@H](C)[C@@H](C)OC(=O)Nc5cccnc5)cc4s3)cc(Cl)cc2c1` [Example 799, (2R,3S)-3-((4-chloro-2-(6-chloro-3-methoxyquinolin-8-yl)-5-fluorobenzo[d]thiazol-6-yl)oxy)butan-2-yl pyridin-3-ylcarbamate], for which the pIC50 was 8.54.
The result for `COc1cnc2c(-c3nc4c(Cl)c(F)c(O[C@@H](C)[C@@H](C)OC(=O)Nc5cnc(C)c(C)c5)cc4s3)cc(Cl)cc2c1` [Example 800, (2R,3S)-3-((4-chloro-2-(6-chloro-3-methoxyquinolin-8-yl)-5-fluorobenzo[d]thiazol-6-yl)oxy)butan-2-yl (5,6-dimethylpyridin-3-yl)carbamate] reads 8.60.
Regarding `COc1cnc2c(-c3nc4c(Cl)c(F)c(O[C@@H](C)[C@@H](C)OC(=O)Nc5ccc(OC)nc5)cc4s3)cc(Cl)cc2c1` [Example 801, (2R,3S)-3-((4-chloro-2-(6-chloro-3-methoxyquinolin-8-yl)-5-fluorobenzo[d]thiazol-6-yl)oxy)butan-2-yl (6-methoxypyridin-3-yl)carbamate], the pIC50 is 8.59.
As for `COc1cnc2c(-c3nc4c(Cl)c(F)c(O[C@@H](C)[C@@H](C)OC(=O)Nc5cncc(C#N)c5)cc4s3)cc(Cl)cc2c1` [Example 802, (2R,3S)-3-((4-chloro-2-(6-chloro-3-methoxyquinolin-8-yl)-5-fluorobenzo[d]thiazol-6-yl)oxy)butan-2-yl (5-cyanopyridin-3-yl)carbamate], the pIC50 is 8.70.
For `COc1cncc(NC(=O)O[C@H](C)[C@H](C)Oc2cc3sc(-c4cc(Cl)cc5cc(OC)cnc45)nc3c(Cl)c2F)c1` [Example 803, (2R,3S)-3-((4-chloro-2-(6-chloro-3-methoxyquinolin-8-yl)-5-fluorobenzo[d]thiazol-6-yl)oxy)butan-2-yl (5-methoxypyridin-3-yl)carbamate], the pIC50 is 8.46.
Regarding `COc1cnc2c(-c3nc4c(Cl)c(F)c(O[C@@H](C)[C@@H](C)OC(=O)Nc5cncc(F)c5)cc4s3)cc(C)cc2c1` [Example 804, (2R,3S)-3-((4-chloro-5-fluoro-2-(3-methoxy-6-methylquinolin-8-yl)benzo[d]thiazol-6-yl)oxy)butan-2-yl (5-fluoropyridin-3-yl)carbamate], the pIC50 is 8.55.
Take `COc1cnc2c(-c3nc4c(C(O)C(C)(C)C)cc(F)cc4s3)cc(C)cc2n1` (stereo not drawn) [Example 806, 1-(6-fluoro-2-(2-methoxy-7-methylquinoxalin-5-yl)benzo[d]thiazol-4-yl)-2,2-dimethylpropan-1-ol]: the pIC50 was 8.18.
With `COc1cnc2c(-c3nc4c(C(O)C(C)(C)C)cc(OC)nc4s3)cc(C)cc2n1` (stereo not drawn) [Example 807, 1-(5-methoxy-2-(2-methoxy-7-methylquinoxalin-5-yl)thiazolo[5,4-b]pyridin-7-yl)-2,2-dimethylpropan-1-ol], the pIC50 is 8.59.
In the case of `COCc1cc(OC)cc2sc(-c3cc(C)cc4nc(OC)cnc34)nc12` [Example 808, 6-methoxy-2-(2-methoxy-7-methylquinoxalin-5-yl)-4-(methoxymethyl)benzo[d]thiazole], the pIC50 is 8.70.
Turning to `COc1cnc2c(-c3nc4cnccc4s3)cc(C)cc2n1` [Example 809, 2-(2-methoxy-7-methylquinoxalin-5-yl)thiazolo[4,5-c]pyridine], the pIC50 is 7.27.
With `COc1cnc2c(-c3nc4cc(F)c(OCCOC(=O)Nc5cccnc5)nc4s3)cc(C)cc2n1` [Example 810, 2-((6-fluoro-2-(2-methoxy-7-methylquinoxalin-5-yl)thiazolo[5,4-b]pyridin-5-yl)oxy)ethyl pyridin-3-ylcarbamate] the figure was 8.16; with `COc1cnc2c(-c3nc4cc(F)c(OCCOC(=O)Nc5cnc(F)c(C)c5)nc4s3)cc(C)cc2n1` [Example 811, 2-((6-fluoro-2-(2-methoxy-7-methylquinoxalin-5-yl)thiazolo[5,4-b]pyridin-5-yl)oxy) ethyl (6-fluoro-5-methylpyridin-3-yl)carbamate], 8.82; with `COc1cnc2c(-c3nc4c(C)cc(OCCOC(=O)Nc5ccc(-c6cccs6)nc5)nc4s3)cc(C)cc2n1` [Example 812, 2-((2-(2-methoxy-7-methylquinoxalin-5-yl)-7-methylthiazolo[5,4-b]pyridin-5-yl)oxy) ethyl (6-(thiophen-2-yl)pyridin-3-yl)carbamate], 8.15.
